Among the test systems are MDA-MB-435; SNB-19 CNS; COLO 205 colon; NCI-H522 lung; UACC-257 melanoma; OVCAR-8 ovarian; MOLT-4 leukemia; 786-0 renal; SW-620 colon; SF-295 CNS; MCF7 breast; HCT-15 colon; NCI-H23 lung; SK-MEL-5 melanoma; EKVX NSCLC; SF-268 CNS; SK-MEL-2 melanoma; RPMI-8226 leukemia; HT29 colon; RXF 393 renal.
What all share (test): NCI anticancer screen, dose series, 48 h

Each structure is given as a SMILES string.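 Interpolation was linear, between the two tested concentrations surrounding the appropriate level; five concentrations were tested over 48 hours in 96-well plates. TGI is the concentration that stops growth completely.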

`C=C(CCOC)CCC1CCCCC(=C)[C@H]1OC(C)=O` (stereo partly drawn): the TGI in the experiment on MDA-MB-435, with SNB-19 CNS, in the experiment on COLO 205 colon, in the experiment with NCI-H522 lung, in the experiment with UACC-257 melanoma and with OVCAR-8 ovarian was greater than 100 µM throughout. Also, the TGI in the experiment with MOLT-4 leukemia, with 786-0 renal, in the experiment on SW-620 colon, with SF-295 CNS, in the experiment with MCF7 breast and with HCT-15 colon was greater than 100 µM each time. Further, the TGI with NCI-H23 lung, in the experiment with SK-MEL-5 melanoma, in the experiment on EKVX NSCLC, in the experiment with SF-268 CNS, in the experiment on SK-MEL-2 melanoma and in the experiment with RPMI-8226 leukemia was greater than 100 µM in each case. The same compound returned a TGI in the experiment with HT29 colon greater than 100 µM.

Take `CC(C)Oc1c(O)c2c3c(oc(=O)n3C=CC2c2ccccc2)c1OC(C)C` (stereo not drawn): the TGI with SNB-19 CNS is greater than 100 µM; in the experiment on COLO 205 colon it was 60.1 µM; in the experiment on UACC-257 melanoma, greater than 100 µM; with OVCAR-8 ovarian it was greater than 100 µM; with MOLT-4 leukemia, greater than 100 µM; in the experiment with 786-0 renal, greater than 100 µM. The TGI is 82.8 µM in the experiment with SW-620 colon; 49.1 µM in the experiment on SF-295 CNS; greater than 100 µM in the experiment with MCF7 breast; 33.7 µM with HCT-15 colon; 52.2 µM with NCI-H23 lung; greater than 100 µM with SK-MEL-5 melanoma. Moreover, the values for the TGI in the experiment with EKVX NSCLC, in the experiment with SK-MEL-2 melanoma and with HT29 colon were 74 µM, 40.1 µM and 77.4 µM, respectively.

`CN1C2=C(CC3=C1CC(C)(C)CC3=O)C(=O)CC(C)(C)C2`: the TGI with SNB-19 CNS, in the experiment with OVCAR-8 ovarian, with MOLT-4 leukemia, in the experiment with 786-0 renal, with SW-620 colon and in the experiment on MCF7 breast was greater than 100 µM each time. The TGI in the experiment with HCT-15 colon, in the experiment with NCI-H23 lung, in the experiment on SK-MEL-5 melanoma, in the experiment on EKVX NSCLC, with SF-268 CNS and with RPMI-8226 leukemia was greater than 100 µM throughout. Besides, the TGI in the experiment with HT29 colon was greater than 100 µM.

For the compound `BrC1=CCC23CC=C(Br)[C@H]4CC2(COC3)C[C@@H]1O4` (stereo partly drawn), the TGI in the experiment with SNB-19 CNS is greater than 100 µM; with COLO 205 colon it was greater than 100 µM; in the experiment with NCI-H522 lung, 66.2 µM; with OVCAR-8 ovarian it was greater than 100 µM; with MOLT-4 leukemia, 86 µM; with 786-0 renal, greater than 100 µM. Also, the TGI in the experiment on SW-620 colon, in the experiment on SF-295 CNS, with HCT-15 colon, in the experiment on NCI-H23 lung, in the experiment on SK-MEL-5 melanoma and in the experiment on EKVX NSCLC was greater than 100 µM in each case. The TGI in the experiment on SF-268 CNS was 30.9 µM; in the experiment with SK-MEL-2 melanoma, greater than 100 µM; with RXF 393 renal, 93.5 µM; in the experiment with RPMI-8226 leukemia, greater than 100 µM.

Turning to `O=c1ccn2n1Cc1ccccc1C2`, the TGI in the experiment with MDA-MB-435, in the experiment on SNB-19 CNS, in the experiment with COLO 205 colon, in the experiment with NCI-H522 lung, with UACC-257 melanoma and in the experiment with OVCAR-8 ovarian was greater than 100 µM throughout. Also, the TGI with MOLT-4 leukemia, in the experiment on 786-0 renal, in the experiment on SW-620 colon, with SF-295 CNS, in the experiment with HCT-15 colon and in the experiment on NCI-H23 lung was greater than 100 µM throughout. In addition, the TGI with SK-MEL-5 melanoma, with EKVX NSCLC, in the experiment on SF-268 CNS, in the experiment on SK-MEL-2 melanoma, in the experiment on RXF 393 renal and with RPMI-8226 leukemia was greater than 100 µM throughout. In the experiment with HT29 colon, this compound displayed a TGI greater than 100 µM.

As to `Cc1ccc2nc(Cl)c(/C=N/N3C(=O)/C(=C/c4cccc([N+](=O)[O-])c4)N=C3c3ccccc3)cc2c1`, the TGI in the experiment with MDA-MB-435 was 54.5 µM; with SNB-19 CNS, greater than 100 µM; in the experiment on COLO 205 colon, greater than 100 µM; with UACC-257 melanoma it was greater than 100 µM; in the experiment on OVCAR-8 ovarian, greater than 100 µM; in the experiment with MOLT-4 leukemia, 80.5 µM. The TGI with 786-0 renal was greater than 100 µM; in the experiment on SW-620 colon, greater than 100 µM; in the experiment on SF-295 CNS, greater than 100 µM; in the experiment on MCF7 breast it was 93.7 µM; in the experiment on HCT-15 colon it was greater than 100 µM; in the experiment on SK-MEL-5 melanoma, greater than 100 µM. The TGI in the experiment with EKVX NSCLC was greater than 100 µM; in the experiment on SF-268 CNS, greater than 100 µM; in the experiment with SK-MEL-2 melanoma it was 61.7 µM; in the experiment on RPMI-8226 leukemia, greater than 100 µM; in the experiment on HT29 colon, greater than 100 µM.

Regarding `O=c1cc(-c2ccccc2)c2ccccc2[nH]1`, the TGI in the experiment on COLO 205 colon, with NCI-H522 lung, in the experiment on UACC-257 melanoma, in the experiment with OVCAR-8 ovarian, in the experiment with MOLT-4 leukemia and in the experiment with 786-0 renal was greater than 100 µM throughout. Moreover, the TGI in the experiment with SW-620 colon is greater than 100 µM; in the experiment on SF-295 CNS, greater than 100 µM; in the experiment with HCT-15 colon, greater than 100 µM; with NCI-H23 lung, greater than 100 µM; with SK-MEL-5 melanoma, 93.2 µM; in the experiment on SF-268 CNS it was greater than 100 µM. For the same compound, the TGI with SK-MEL-2 melanoma, in the experiment with RXF 393 renal, in the experiment with RPMI-8226 leukemia and with HT29 colon was greater than 100 µM in each case.

As to `CCOC(=O)c1cc(=O)c2ccnc3c2n1CCS3`, the TGI is greater than 100 µM in the experiment with MDA-MB-435; greater than 100 µM in the experiment on SNB-19 CNS; greater than 100 µM in the experiment with COLO 205 colon; 74.4 µM in the experiment with NCI-H522 lung; greater than 100 µM in the experiment with UACC-257 melanoma; greater than 100 µM with OVCAR-8 ovarian. The TGI in the experiment with MOLT-4 leukemia, in the experiment with 786-0 renal, in the experiment on SW-620 colon, in the experiment with SF-295 CNS, in the experiment on MCF7 breast and in the experiment on HCT-15 colon was greater than 100 µM in each case. Also, the TGI with NCI-H23 lung, in the experiment on SK-MEL-5 melanoma, with EKVX NSCLC, with SF-268 CNS, with SK-MEL-2 melanoma and in the experiment on HT29 colon was greater than 100 µM each time.

For the origin of these results see PubChem BioAssay (NCI).
